Test results: publication PMC7260283, “The Amino Terminus of LeuT Changes Conformation in an Environment Sensitive Manner” (Neurochemical Research, 2019)

Target: T1, wild type LeuT (Aquifex aeolicus, UniProt O67854)
T1 construct: gene snf; full-length, His-tagged, expressed in E. coli C41(DE3), purified in DDM; plasmid from Eric Gouaux
Assay: scintillation proximity assay, competition of cold leucine with [3H]leucine, YSi beads
Type: binding
Settings: purified His-tagged protein; competitive with [3H]leucine

For `CC(C)C[C@H](N)C(=O)O` [leucine], the KI was 15.5 ± 2.4 nM.
